The results in this text go back to US20250171452A1 (Viscient Bio, Inc., priority 2022, published 2025).

Counter-ions that a name gives are not always drawn. Bounds are passed on as bounds.

Chain of IDO2 (Q6ZQW0 whole entry, species assumed): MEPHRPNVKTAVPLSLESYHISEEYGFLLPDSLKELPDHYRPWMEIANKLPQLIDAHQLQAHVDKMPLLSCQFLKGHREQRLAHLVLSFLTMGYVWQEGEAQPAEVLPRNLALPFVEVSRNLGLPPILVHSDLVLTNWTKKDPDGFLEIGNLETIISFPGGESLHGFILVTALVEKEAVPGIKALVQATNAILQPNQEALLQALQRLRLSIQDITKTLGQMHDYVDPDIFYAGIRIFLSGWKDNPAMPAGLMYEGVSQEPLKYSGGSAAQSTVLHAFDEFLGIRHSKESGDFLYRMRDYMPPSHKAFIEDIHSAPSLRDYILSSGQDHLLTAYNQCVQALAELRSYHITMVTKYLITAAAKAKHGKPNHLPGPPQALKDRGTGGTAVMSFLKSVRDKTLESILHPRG

The experiment addresses IDO2 (Homo sapiens (Human), UniProt Q6ZQW0). As to the kind of experiment: Cellular IDO2 assay, doxycycline and 5-methoxy-L-tryptophan medium, colorimetric. It counts as cell-based. As to conditions: cellular level, 72 h incubation, signal at 480 nm.
Regarding `CO/N=C1\c2cc(F)ccc2-n2c1nc1cc(CNS(N)(=O)=O)ccc1c2=O` [Compound 99], the 50% inhibitory concentration (IC50) is less than 50 nM.
Then `Cc1ccc2nc3n(c(=O)c2c1Cl)-c1ccc(Br)cc1C3=O` [Compound 105], with less than 50 nM; and `N#C/N=C(\N)NCc1ccc2nc3n(c(=O)c2c1)-c1ccc(F)cc1C3=O` [Compound 140, 2-cyano-1-((8-fluoro-6,12-dioxo-6,12-dihydroindolo[2,1-b]quinazolin-2-yl)methyl)guanidine], with less than 50 nM.
Then `N=C(N)NCc1ccc2nc3n(c(=O)c2c1)-c1ccc(F)cc1C3=O` [Compound 147, 1-((8-fluoro-6,12-dioxo-6,12-dihydroindolo[2,1-b]quinazolin-2-yl)methyl)guanidine], with 50 to 500 nM; and `COc1cc2c(=O)n3c(nc2cn1)C(=O)c1cc([N+](=O)[O-])ccc1-3` [Compound 58, 3-Methoxy-9-nitropyrido[3′,4′:4,5]pyrimido[1,2-a]indole-5,11-dione], with 50 to 500 nM.
With `O=C1c2cc(F)ccc2-n2c1nc1c(Nc3ccc(F)cc3)cccc1c2=O` [Compound 125], the IC50 was 50 to 500 nM.
Then `CS(=O)(=O)Nc1ccc2c(c1)C(=O)c1nc3cc(Cl)cc(Cl)c3c(=O)n1-2` [Compound 86], with 50 to 500 nM; and `CS(=O)(=O)c1ccc2c(c1)/C(=N\O)c1nc3cc(F)ccc3c(=O)n1-2` [Compound 67], with 50 to 500 nM.
In turn, `CN(C)Cc1ccc2nc3n(c(=O)c2c1Cl)-c1ccc(Br)cc1C3=O` [Compound 107] came in with a half-inhibitory concentration (IC50) of less than 50 nM.
Then `O=C1c2cc(Br)ccc2-n2c1nc1c(Nc3ccc(F)cc3)cccc1c2=O` [Compound 121, 8-bromo-4-((4-fluorophenyl)amino)indolo[2,1-b]quinazoline-6,12-dione], with 50 to 500 nM.
Next, `O=C1c2cc(F)ccc2-n2c1nc1cc(-n3ccnc3)ccc1c2=O` [Compound 98, 8-fluoro-3-(1H-imidazol-1-yl)indolo[2,1-b]quinazoline-6,12-dione]: less than 50 nM.
Next, `O=C1c2cc([N+](=O)[O-])ccc2-n2c1nc1ccc(F)c(Cl)c1c2=O` [Compound 110]: less than 50 nM; `N#Cc1ccc2c(c1)C(=O)c1nc3c(Nc4ccc(F)cc4)cccc3c(=O)n1-2` [Compound 119, 4-((4-Fluorophenyl)amino)-6,12-dioxo-6,12-dihydroindolo[2,1-b]quinazoline-8-carbonitrile]: less than 50 nM; `O=C1c2cc(F)ccc2-n2c1nc1c(NCc3ccc(F)cc3)cccc1c2=O` [Compound 115, 8-Fluoro-4-((4-fluorobenzyl)amino)indolo[2,1-b]quinazoline-6,12-dione]: 50 to 500 nM.
With `CON=C1c2cc(F)ccc2-n2c1nc1cc(CNC(=O)OCc3ccccc3)ccc1c2=O` (stereo in doubt) [Compound 93, benzyl (Z)-((8-fluoro-6-(methoxyimino)-12-oxo-6,12-dihydroindolo[2,1-b]quinazolin-3-yl)methyl)carbamate], the IC50 lay within 50 to 500 nM.
Then `CON=C1c2cc(F)ccc2-n2c1nc1cc(CNC(C)=O)ccc1c2=O` (stereo in doubt) [Compound 94, (Z)—N-((8-fluoro-6-(methoxyimino)-12-oxo-6,12-dihydroindolo[2,1-b]quinazolin-3-yl)methyl)acetamide], with 50 to 500 nM.
Next, `N=C(N)c1ccc2nc3n(c(=O)c2c1)-c1ccc(F)cc1C3=O` [Compound 148, 8-fluoro-6,12-dioxo-6,12-dihydroindolo[2,1-b]quinazoline-2-carboximidamide]: less than 50 nM; `O=c1c2ccc(Cl)cc2nc2n1-c1ccc(Br)cc1C2` [Compound 76]: less than 50 nM.
In the case of `NC(=O)NCc1ccc2nc3n(c(=O)c2c1)-c1ccc(F)cc1C3=O` [Compound 139, 1-((8-fluoro-6,12-dioxo-6,12-dihydroindolo[2,1-b]quinazolin-2-yl)methyl)urea], the IC50 is less than 50 nM.
In turn, `CO/N=C1/c2cc(C#N)ccc2-n2c1nc1ccc(CN3CCOCC3)cc1c2=O` [Compound 131, (Z)-6-(methoxyimino)-2-(morpholinomethyl)-12-oxo-6,12-dihydroindolo[2,1-b]quinazoline-8-carbonitrile] returned a half-maximal inhibitory concentration (IC50) of less than 50 nM.
Next, `CS(=O)(=O)NCc1ccc2nc3n(c(=O)c2c1)-c1ccc(F)cc1C3=O` [Compound 145, N-((8-fluoro-6,12-dioxo-6,12-dihydroindolo[2,1-b]quinazolin-2-yl)methyl)methanesulfonamide]: less than 50 nM; `NC(=O)c1ccc2c(c1)Cc1nc3cc(F)ccc3c(=O)n1-2` [Compound 80]: 50 to 500 nM.
Next, `CC(=O)NCc1ccc2nc3n(c(=O)c2c1)-c1ccc(F)cc1C3=O` [Compound 142, N-((8-fluoro-6,12-dioxo-6,12-dihydroindolo[2,1-b]quinazolin-2-yl)methyl)acetamide]: less than 50 nM; `CC1(O)c2cc(F)ccc2-n2c1nc1ccc(C#N)cc1c2=O` (centres unmarked) [Compound 152, 8-fluoro-6-hydroxy-6-methyl-12-oxo-6,12-dihydroindolo[2,1-b]quinazoline-2-carbonitrile]: more than 500 nM; `O=C1c2cc(F)ccc2-n2c1nc1ccc(-n3ccnc3)cc1c2=O` [Compound 137, 8-fluoro-2-(1H-imidazol-1-yl)indolo[2,1-b]quinazoline-6,12-dione]: less than 50 nM.
Next, `CO/N=C1/c2cc(F)ccc2-n2c1nc1ccc(CNc3ccccn3)cc1c2=O` [Compound 134, (Z)-8-fluoro-6-(methoxyimino)-2-((pyridin-2-ylamino)methyl)indolo[2,1-b]quinazolin-12(6H)-one]: 50 to 500 nM; `NC(=O)c1ccc2nc3n(c(=O)c2c1)-c1ccc(F)cc1C3=O` [Compound 149, 8-fluoro-6,12-dioxo-6,12-dihydroindolo[2,1-b]quinazoline-2-carboxamide]: less than 50 nM; `CC1(CCC(=O)Nc2ccc3nc4n(c(=O)c3c2)-c2ccc(F)cc2C4=O)N=N1` [Compound 129]: less than 50 nM.
As for `CON=C1c2cc(F)ccc2-n2c1nc1cc(CNS(C)(=O)=O)ccc1c2=O` (stereo in doubt) [Compound 91, (Z)—N-((8-fluoro-6-(methoxyimino)-12-oxo-6,12-dihydroindolo[2,1-b]quinazolin-3-yl)methyl)methanesulfonamide], the IC50 was less than 50 nM.
In turn, `CS(=O)(=O)c1ccc2c(c1)Cc1nc3cc(F)ccc3c(=O)n1-2` [Compound 85] gave a half-maximal inhibitory concentration (IC50) of 50 to 500 nM.
Next, `O=C1c2cc([N+](=O)[O-])ccc2-n2c1nc1cccc(Br)c1c2=O` [Compound 55, 1-Bromo-8-nitroindolo[2,1-b]quinazoline-6,12-dione]: more than 500 nM.
Next, `NS(=O)(=O)NCc1ccc2c(=O)n3c(nc2c1)C(=O)c1cc(F)ccc1-3` [Compound 88]: less than 50 nM; `CN(C)Cc1ccc2nc3n(c(=O)c2c1Cl)-c1ccc(C#N)cc1C3=O` [Compound 104]: less than 50 nM.
Compound `CO/N=C1/c2cc(F)ccc2-n2c1nc1cc(-n3ccnc3)ccc1c2=O` [Compound 97, (Z)-8-fluoro-3-(1H-imidazol-1-yl)-6-(methoxyimino)indolo[2,1-b]quinazolin-12(6H)-one] showed an IC50 of less than 50 nM.
Next, `NS(=O)(=O)c1ccc2c(c1)C(=O)c1nc3cc(Cl)ccc3c(=O)n1-2` [Compound 75]: 50 to 500 nM; `NS(=O)(=O)NCc1ccc2nc3n(c(=O)c2c1)-c1ccc(F)cc1C3=O` [Compound 143]: less than 50 nM; `CO/N=C1/c2cc(F)ccc2-n2c1nc1ccc(-c3c[nH]cn3)cc1c2=O` [Compound 146]: less than 50 nM.
Then `O=C1c2cc([N+](=O)[O-])ccc2-n2c1nc1ccc(F)c(F)c1c2=O` [Compound 108], with 50 to 500 nM; and `O=C1c2cc(SCc3ccccc3)ccc2-n2c1nc1c(Cl)cccc1c2=O` [Compound 117], with less than 50 nM; and `CO/N=C1/c2cc(F)ccc2-n2c1nc1ccc(CN(C)C)cc1c2=O` [Compound 138, (Z)-2-((dimethylamino)methyl)-8-fluoro-6-(methoxyimino)indolo[2,1-b]quinazolin-12(6H)-one Trifluoroacetate Salt], with 50 to 500 nM.
On to “3-bromo-8-nitroindolo[2,1-b]quinazoline-6,12-dione [Compound 65]”, for which the IC50 was 50 to 500 nM.
Next, `O=C1c2cc(F)ccc2-n2c1nc1cc(Nc3ccc(F)cc3)ccc1c2=O` [Compound 83]: less than 50 nM; `NCc1cccc2nc3n(c(=O)c12)-c1ccc(F)cc1C3=O` [Compound 102]: less than 50 nM.
Next, `O=c1c2ccccc2nc2n1-c1ccc([N+](=O)[O-])cc1C2` [Compound 62, 8-Nitroindolo[2,1-b]quinazolin-12(6H)-one]: 50 to 500 nM; `O=C1c2cc(F)ccc2-n2c1nc1cc(NCc3ccc(F)cc3)ccc1c2=O` [Compound 81]: less than 50 nM.
The compound `[N-]=[N+]=Nc1ccc2c(c1)C(=O)c1nc3cc(Cl)ccc3c(=O)n1-2` [Compound 66] returned an IC50 of less than 50 nM.
On to `Cc1ccc2nc3n(c(=O)c2c1)-c1ccc([N+](=O)[O-])cc1C3=O` [Compound 52, 2-Methyl-8-nitroindolo[2,1-b]quinazoline-6,12-dione], for which the IC50 was less than 50 nM.
Next, `CN(C)Cc1ccc2nc3n(c(=O)c2c1)-c1ccc(S(=O)(=O)Cc2ccccc2)cc1C3=O` [Compound 127]: less than 50 nM; `CO/N=C1\c2cc(F)ccc2-n2c1nc1cc(CN3CCN(C)CC3)ccc1c2=O` [Compound 74]: more than 500 nM.
As to `CON=C1c2cc(F)ccc2-n2c1nc1c(Nc3ccc(F)cc3)cccc1c2=O` (stereo in doubt) [Compound 122, (Z)-8-Fluoro-4-((4-fluorophenyl)amino)-6-(methoxyimino)indolo[2,1-b]quinazolin-12(6H)-one], the IC50 was more than 500 nM.
`NCCNC(=O)c1ccc2c(c1)/C(=N\O)c1nc3cc(Cl)ccc3c(=O)n1-2` [Compound 68]: the half-maximal inhibitory concentration (IC50) is 50 to 500 nM.
Then `O=C1c2cc(C(F)(F)F)ccc2-n2c1nc1ccccc1c2=O` [Compound 53, 8-(Trifluoromethyl)indolo[2,1-b]quinazoline-6,12-dione], with less than 50 nM.
Then `CO/N=C1/c2cc(F)ccc2-n2c1nc1ccc(-n3ccnc3)cc1c2=O` [Compound 132], with less than 50 nM.
